{
  "source": "patent US20050038113A1",
  "about": "“Valproic acid and derivatives for the combinatorial therapeutic treatment of human cancers and for the treatment of tumor metastasis and minimal residual disease” (G2M Cancer Drugs AG, priority 2001, published 2005)",
  "key": {"[1]": {"tested_on": "SKOV3 ovarian carcinoma cells", "assay": "MTT cell viability assay", "type": "cell-based, Human", "conditions": "40 h", "protocol": "Human SKBR3 breast carcinoma cells, A431 squamous cell carcinoma cells and SKOV3 ovarian carcinoma cells were maintained in Dulbecco's modified Eagle's medium (DMEM, BioWhittaker, Verviers, Belgium) supplemented with 10% heat-inactivated fetal bovine serum (FBS), 2 mM L-glutamine, 100 units/ml penicillin, and 100 μg/ml streptomycin.\nTumor cells were seeded in 96 well plates at a density of 1×10^4 cells/well in normal growth medium. SKBR3, A431 and SKOV3 cells were treated for 40 h with valproic acid at a final concentration of 3 mM, or 10 ng/ml of the recombinant anti-ErbB2 single chain antibody-toxin scFv(FRP5)-ETA (Wels et al., Cancer Res. 52: 6310-6317, 1992), or 10 ng/ml of the recombinant anti-EGF receptor single chain antibody-toxin scFv(14E1)-ETA (Schmidt et al., Brit. J. Cancer 75: 1575-1584, 1997), or a combination of valproic acid with either scFv(FRP5)-ETA or scFv(14E1)-ETA at the same concentrations. […] After solubilization of the formazan product, the absorption at 590 nm was determined in a microplate reader (Dynatech, Denkendorf, Germany) and the relative amount of viable cells in comparison to cells cultured without the addition of valproic acid or antibody-toxins was calculated."}, "[2]": {"tested_on": "Renca-lacZ/EGFR renal carcinoma cells", "assay": "MTT cell viability assay", "type": "cell-based, Mouse", "conditions": "40 h", "from_the_text": "(§1) Renal cell carcinoma (Renca) cells stably transfected with plasmid pZeoSV2/lacZ encoding E. coli β-galactosidase, and either with plasmids pSV2ErbB2N and pSV2neo encoding c-erbB2 and neomycin resistance (Renca-lacZ/ErbB2) (Maurer-Gebhard et al., Cancer Res. 58: 2661-2666, 1998), or plasmids pLTR-EGFR or pLTR-EGFRvIII and pSV2neo encoding epidermal growth factor (EGF) receptor, the oncogenically activated EGF receptor variant EGFRvIII, and neomycin resistance (Renca-lacZ/EGFR and Renca-lacZ/EGFRvIII) (Schmidt et al., Oncogene 18: 1711-1721, 1999) were grown in RPMI-1640 medium supplemented with 8% FBS, 2 mM L-glutamine, 100 U/ml penicillin, 100 μg/ml streptomycin, 0.25 mg/ml Zeocin and 0.48 mg/ml G418.\n(§2) Tumor cells were seeded in 96 well plates at a density of 1×10^4 cells/well in normal growth medium. SKBR3, A431 and SKOV3 cells were treated for 40 h with valproic acid at a final concentration of 3 mM, or 10 ng/ml of the recombinant anti-ErbB2 single chain antibody-toxin scFv(FRP5)-ETA (Wels et al., Cancer Res. 52: 6310-6317, 1992), or 10 ng/ml of the recombinant anti-EGF receptor single chain antibody-toxin scFv(14E1)-ETA (Schmidt et al., Brit. J. Cancer 75: 1575-1584, 1997), or a combination of valproic acid with either scFv(FRP5)-ETA or scFv(14E1)-ETA at the same concentrations. Renca-lacZ/ErbB2, Renca-lacZ/EGFR and Renca-lacZ/EGFRvIII cells were treated for 40 h with valproic acid at a final concentration of 1 mM, or 10 ng/ml of the recombinant anti-ErbB2 single chain antibody-toxin scFv(FRP5)-ETA, or 1 ng/ml of the recombinant anti-EGF receptor single chain antibody-toxin scFv(14E1)-ETA, or a combination of valproic acid with either scFv(FRP5)-ETA or scFv(14E1)-ETA at the same concentrations. Control cells were grown in the absence of valproic acid or antibody-toxins. Ten μl of 10 mg/ml 3-(4,5-dimethylthiazole-2-yl)-2,5 diphenyltetrazolium bromide (MTT) (Sigma, Deisenhofen, Germany) in PBS were added to each well and the cells were incubated for another 3 h. Cells were lysed by the addition of 90 μl of lysis buffer (20% SDS in 50% dimethyl formamide, pH 4.7). After solubilization of the formazan product, the absorption at 590 nm was determined in a microplate reader (Dynatech, Denkendorf, Germany) and the relative amount of viable cells in comparison to cells cultured without the addition of valproic acid or antibody-toxins was calculated."}, "[3]": {"tested_on": "Renca-lacZ/EGFRvIII renal carcinoma cells", "assay": "MTT cell viability assay", "type": "cell-based, Mouse", "conditions": "40 h", "from_the_text": "as §1, §2"}, "[4]": {"tested_on": "Renca-lacZ/ErbB2 renal carcinoma cells", "assay": "MTT cell viability assay", "type": "cell-based, Mouse", "conditions": "40 h", "from_the_text": "as §1, §2"}, "[5]": {"assay": "dose finding experiment, VPA serum levels", "type": "in vivo, rat", "conditions": "chosen dosage protocol", "protocol": "MT450 cells were grown in DMEM/W10% FCS medium and tested for absence of mycoplasms just prior to injection. Cells were washed twice in PBS and suspended to a density of 5×10^6 cells per ml of PBS. 5×10^5 cells in 0.1 ml of PBS were injected into each rat. […] Rats were left to grow primary tumors for 21 days. […] The solution was sterile filtered. The compound was applied by i.p. injection. […] Two doses per day were applied. Control animals received equal amounts of a sterile isotonic sodium chloride solution.\nThe experiment was terminated when tumor size in one of the rats of the control group had reached the legal limit of 50 mm. Necropsy at that time was performed on all rats of the experiment to assess lung metastasis. […] Metastasis was also found in 7 out of 8 VPA-treated rats. However, size and number of metastases were much smaller compared to NaCl-treated rats. A dose finding experiment had shown that the chosen dosage protocol lead to high initial serum levels (e.g. 3.6 mM at 1 hour after i.p. injection) which rapidly dropped (e.g. 0.25 mM at 4 hours after i.p. injection) below those levels which are maintained during therapy of epilepsy in human."}, "[6]": {"tested_on": "wild-type cells (hematopoietic progenitor cells)", "assay": "X-ray sensitivity, colonies in methylcellulose", "type": "cell-based, Murine", "conditions": "VPA 1 mM, X-ray 2 Gy", "protocol": "Lin- cells were transduced as described for FIG. 11 (see also methods in example 10 for details), and sorted by FACS. 12 hours after sorting, cells were washed with PBS, and then incubated for 8-12 hours in medium with cytokines [data presented in FIG. 12 using IL-3 (20 ng/ml), IL-6 (20 ng/ml), SCF (100 ng/ml), G-CSF (60 ng/ml), GM-CSF (20 ng/ml)] or without cytokines (data not shown). […] Finally, cells were plated in methylcellulose containing medium (StemCell Technologies) in the presence of cytokines (IL3, IL6, SCF, G- and GM-CSF) for 8-10 days. For FIG. 12 uninfected cells (“Control”), or cells expressing GFP alone (“Empty Vector”), or cells expressing GFP and PML-RAR (“PML-RAR”) were used. 8 days after plating in methylcellulose, the total number of colonies was measured."}, "[7]": {"tested_on": "PML-RAR expressing leukemic cells", "assay": "survival of mice suffering from acute promyelocytic leukemia", "type": "in vivo", "protocol": "Mice that developed leukemia after inoculation with PML-RAR expressing cells were sacrificed. Single-cell suspensions of spleenocytes were prepared, and secondary recipient mice were reinoculated with 10^7 cells.\nThe numbers in parentheses indicate the number of mice in the representative experiment shown."}, "[8]": {"conditions": "1 mM valproic acid + 1 ng/ml scFv(14E1)-ETA"}, "[9]": {"conditions": "single reagent, valproic acid 1 mM, scFv(14E1)-ETA 1 ng/ml"}},
  "data": [
    {"smiles": "CCCC(CCC)C(=O)O", "note": "[VPA, 2-propylpentanoic acid]", "values": [
      {"measurement": "cell viability, combination treatment", "setting": "[1]; 3 mM valproic acid + 10 ng/ml scFv(FRP5)-ETA", "result": "pronounced additive therapeutic effect"},
      {"measurement": "cell viability", "setting": "[1]; single reagent, valproic acid 3 mM, scFv(FRP5)-ETA 10 ng/ml", "result": "inhibit the viability"},
      {"measurement": "cell viability, combination treatment", "setting": "[2]; [8]", "result": "pronounced additive therapeutic effect"},
      {"measurement": "cell viability", "setting": "[2]; [9]", "result": "inhibit the viability"},
      {"measurement": "cell viability, combination treatment", "setting": "[3]; [8]", "result": "pronounced additive therapeutic effect"},
      {"measurement": "cell viability", "setting": "[3]; [9]", "result": "inhibit the viability"},
      {"measurement": "cell viability, combination treatment", "setting": "[4]; 1 mM valproic acid + 10 ng/ml scFv(FRP5)-ETA", "result": "pronounced additive therapeutic effect"},
      {"measurement": "cell viability", "setting": "[4]; single reagent, valproic acid 1 mM, scFv(FRP5)-ETA 10 ng/ml", "result": "inhibit the viability"},
      {"measurement": "serum level", "setting": "[5]; 1 hour after i.p. injection", "result": 3600, "unit": "µM"},
      {"measurement": "serum level", "setting": "[5]; 4 hours after i.p. injection", "result": 250, "unit": "µM"},
      {"measurement": "X-ray sensitivity", "setting": "[6]", "result": "slightly decreased the sensitivity"},
      {"measurement": "leukemic blasts in peripheral blood, bone marrow, spleen", "setting": "[7]; combination of retinoic acid and VPA, entire duration of the treatment", "result": "no leukemic blasts were observed"},
      {"measurement": "survival of leukemic mice", "setting": "[7]; combination of retinoic acid pellet and VPA 400 mg/kg I.P. every 12 hours", "result": "greatest extension of survival"},
      {"measurement": "survival of leukemic mice", "setting": "[7]; single agent: retinoic acid pellets subcutaneously, VPA 400 mg/kg I.P. every 12 hours", "result": "significantly extended survival"}
    ]}
  ]
}
